Assay results as given in patent US11529323B2 (priority 2017, dated 2022).

How the values were obtained:
Format in all cases: in vivo, mouse
serum cytokines = test: Serum cytokine panel, multiplex analysis, Study 2, C-26 tumor-bearing mice; conditions: GTx-024 15 mg/kg, AR-42 10 mg/kg p.o. qd, Day 17 sacrifice, mean ± SD
Protocol: These studies were performed as previously described (Tseng Y C, et al. J Natl Cancer Inst. 2015 107(12):djv274) with modifications. Tumors were established in the right flank by subcutaneous injection of C-26 cells (0.5×10^6 cells in 0.1 mL). […] TFM-4AS-1 (a potent experimental SARM), dihydrotestosterone (DHT) and vehicles were administered by subcutaneous injection.
This confirmatory study was performed exactly as Study 1 with expanded animal numbers. Tumor-free control groups were maintained at 6 animals each, whereas 10 animals were included in each of the tumor-bearing groups. […] Grip strength was measured on study days 0 (baseline) and 16. Due to rapid model progression, this study was terminated after only 12 days of treatment.
Serum cytokine panel analyses were performed by a commercial vendor (Eve Technologies, Calgary, Canada) as previously described. Serum interleukin-6 (IL-6) was measured using a commercial ELISA kit (R&D Systems, Minneapolis, Minn., USA) according to the manufacturer's instructions.

androgen receptor (AR) = test: Western blot of androgen receptor in gastrocnemius muscle, Study 1; conditions: irrespective of tumor burden
Protocol: FIGS. 3A-B show gene expression of multiple cachexia-associated markers in gastrocnemius muscles of individual animals from Study 1 (n=5-6 per group). Expression was determined by qRT-PCR (Geometric Mean±Geometric STD). FIG. 3A contains bar graphs showing genes associated with muscle atrophy. FIG. 3B is a bar graph showing androgen receptor (AR) mRNA expression. […] Statistics all panels: *p<0.05, ***p<0.001, ****p<0.0001 versus tumor-bearing vehicle-treated controls, Dunnett's multiple comparison test. CEBPO, n=4, insufficient sample to analyze all tumor-bearing GTx-024-treated animals.
(§1) Western blots from all studies were performed on gastrocnemius muscle from representative animals lysed by Nonidet P-40 isotonic lysis buffer [50 mM Tris-HCl, pH 7.5, 120 mM NaCl, 1% (v/v) Nonidet P-40, 1 mM EDTA, 50 mM NaF, 40 mM glycerophosphate, and […] each of protease inhibitors (aprotinin, pepstatin, and leupeptin)]. Equivalent amounts of protein from each sample, as determined by Bradford assay (Bio-Rad), was resolved by SDS-PAGE and then transferred (semi-dry) onto immobilon-nitrocellulose membranes (Millipore, Billerica, Mass.). Membranes were washed twice with TBST [Tris-buffered saline (TBS) containing 0.1% Tween 20], blocked with 5% nonfat milk in TBST for 1 hour, and then washed an additional 3 times. […]

phospho-STAT3 (pSTAT3) = test: Western blot of phospho-STAT3 in gastrocnemius muscle, Study 1; conditions: C-26 tumor-bearing animals
Description: FIG. 4A is a table showing multiplex analysis of diverse serum cytokines in terminal samples from Study 2. Presented cytokines are limited to those showing significant differences from tumor-bearing vehicle-treated controls. G-CSF: granulocyte colony-stimulating factor, GM-CSF: granulocyte macrophage colony-stimulating factor, IL-6: interleukin-6, IL-17: interleukin-17, IP-10: interferon gamma-induced protein 10, KC: chemokine (C-X-C motif) ligand 1, LIF: leukemia inhibitory factor, M-CSF: macrophage colony-stimulating factor. FIG. 4B is a bar graph showin ELISA analysis of serum IL-6 levels in terminal samples from Study 2. ND, not detected. FIG. 4C is a plot showing individual animal serum IL-6 values as determined in A plotted against tumor-corrected terminal bodyweights from Study 2 (Pearson's Correlation). […]
as §1, with “Mass.).” for “Mass.). Membranes were washed twice with TBST [Tris-buffered saline (TBS) containing 0.1% Tween 20], blocked with 5% nonfat milk in TBST for 1 hour, and then washed an additional 3 times.”

Structure (SMILES) | Eotaxin, serum (serum cytokines) [pg/mL] | G-CSF, serum (serum cytokines) [pg/mL] | GM-CSF, serum (serum cytokines) [pg/mL] | IFNg, serum (serum cytokines) [pg/mL] | IL12 (p40), serum (serum cytokines) [pg/mL] | IL-1a, serum (serum cytokines) [pg/mL] | IL-1b, serum (serum cytokines) [pg/mL] | IL-2, serum (serum cytokines) [pg/mL] | IL-3, serum (serum cytokines) [pg/mL] | IL-4, serum (serum cytokines) [pg/mL] | IL-5, serum (serum cytokines) [pg/mL] | IL-6, serum (serum cytokines) [pg/mL] | IL-7, serum (serum cytokines) [pg/mL] | IL-9, serum (serum cytokines) [pg/mL] | IL-10, serum (serum cytokines) [pg/mL] | IL-12 (p70), serum (serum cytokines) [pg/mL] | IL-13, serum (serum cytokines) [pg/mL] | IL-15, serum (serum cytokines) [pg/mL] | IL-17, serum (serum cytokines) [pg/mL] | IP-10, serum (serum cytokines) [pg/mL] | other results
C[C@](O)(COc1ccc(C#N)cc1)C(=O)Nc1ccc(C#N)c(C(F)(F)F)c1 [GTx-024, (2S)-3-(4-cyanophenoxy)-N-(4-cyano-3-(trifluoromethyl)phenyl)-2-hydroxy-2-methylpropanamide] | 876.82 ± 100.53 | 2446.63 ± 1625.70 | 17.35 ± 4.33 | 4.12 ± 2.09 | 27.61 ± 27.95 | 167.80 ± 156.50 | 12.12 ± 5.54 | 15.62 ± 3.41 | 0.92 ± 0.56 | 0.23 ± 0.14 | 1.11 ± 0.66 | 397.54 ± 341.43 | 11.19 ± 8.17 | 8.69 ± 9.43 | 14.15 ± 18.01 | 12.62 ± 7.71 | 31.63 ± 8.22 | 97.32 ± 39.18 | 1.75 ± 1.28 | 154.76 ± 17.98 | KC, serum (serum cytokines): 288.89 ± 154.46 pg/mL; LIF, serum (serum cytokines): 45.26 ± 21.57 pg/mL; LIX, serum (serum cytokines): 5234.39 ± 4771.34 pg/mL; M-CSF, serum (serum cytokines): 22.23 ± 9.45 pg/mL; MCP-1, serum (serum cytokines): 88.07 ± 24.41 pg/mL; MIG, serum (serum cytokines): 39.33 ± 12.88 pg/mL; MIP-1a, serum (serum cytokines): 108.03 ± 27.91 pg/mL; MIP-1b, serum (serum cytokines): 81.67 ± 11.63 pg/mL; MIP-2, serum (serum cytokines): 147.63 ± 59.81 pg/mL; RANTES, serum (serum cytokines): 20.67 ± 4.57 pg/mL; TNFa, serum (serum cytokines): 12.71 ± 5.12 pg/mL; VEGF, serum (serum cytokines): 0.87 ± 0.29 pg/mL; AR protein expression in gastrocnemius (androgen receptor (AR)): increased; pSTAT3 abundance in gastrocnemius muscle (phospho-STAT3 (pSTAT3)): no apparent effect on pSTAT3
CC(C)[C@H](C(=O)Nc1ccc(C(=O)NO)cc1)c1ccccc1 [AR-42, (S)—N-hydroxy-4-(3-methyl-2-phenylbutanamido)benzamide] | 735.73 ± 110.62 | 2782.18 ± 2191.30 | 18.70 ± 3.77 | 4.69 ± 1.11 | 31.22 ± 24.43 | 143.31 ± 157.59 | 20.48 ± 6.25 | 19.37 ± 6.07 | 0.72 ± 0.83 | 0.32 ± 0.19 | 5.50 ± 4.41 | 256.59 ± 183.1 | 41.51 ± 99.92 | 11.28 ± 7.68 | 15.13 ± 11.16 | 10.16 ± 6.16 | 34.19 ± 8.29 | 51.57 ± 19.99 | 1.82 ± 0.85 | 215.35 ± 52.46 | KC, serum (serum cytokines): 363.38 ± 200.65 pg/mL; LIF, serum (serum cytokines): 15.79 ± 5.15 pg/mL; LIX, serum (serum cytokines): 2515.38 ± 3119.67 pg/mL; M-CSF, serum (serum cytokines): 20.21 ± 4.63 pg/mL; MCP-1, serum (serum cytokines): 91.18 ± 40.23 pg/mL; MIG, serum (serum cytokines): 55.17 ± 10.58 pg/mL; MIP-1a, serum (serum cytokines): 63.79 ± 19.14 pg/mL; MIP-1b, serum (serum cytokines): 76.41 ± 12.81 pg/mL; MIP-2, serum (serum cytokines): 146.34 ± 32.60 pg/mL; RANTES, serum (serum cytokines): 19.70 ± 4.31 pg/mL; TNFa, serum (serum cytokines): 12.77 ± 4.55 pg/mL; VEGF, serum (serum cytokines): 1.04 ± 0.24 pg/mL; AR protein expression in gastrocnemius (androgen receptor (AR)): did not have a marked impact on AR expression; pSTAT3 abundance in gastrocnemius muscle (phospho-STAT3 (pSTAT3)): reduced pSTAT3 but not equally in all animals
